Measurements: patent publication US8987321B2, “Lisofylline analogs and methods for use” (University of Virginia Patent Foundation, priority 2005, dated 2015)

Tests used:
rCYP 1A2 = target: T1, rCYP 1A2 (Homo sapiens, UniProt P05177); assay: rCYP450 inhibition, 1A2; type: in vitro ADME; parameters: concentration or dose not given beside the values
T1 sequence (P05177 1-516): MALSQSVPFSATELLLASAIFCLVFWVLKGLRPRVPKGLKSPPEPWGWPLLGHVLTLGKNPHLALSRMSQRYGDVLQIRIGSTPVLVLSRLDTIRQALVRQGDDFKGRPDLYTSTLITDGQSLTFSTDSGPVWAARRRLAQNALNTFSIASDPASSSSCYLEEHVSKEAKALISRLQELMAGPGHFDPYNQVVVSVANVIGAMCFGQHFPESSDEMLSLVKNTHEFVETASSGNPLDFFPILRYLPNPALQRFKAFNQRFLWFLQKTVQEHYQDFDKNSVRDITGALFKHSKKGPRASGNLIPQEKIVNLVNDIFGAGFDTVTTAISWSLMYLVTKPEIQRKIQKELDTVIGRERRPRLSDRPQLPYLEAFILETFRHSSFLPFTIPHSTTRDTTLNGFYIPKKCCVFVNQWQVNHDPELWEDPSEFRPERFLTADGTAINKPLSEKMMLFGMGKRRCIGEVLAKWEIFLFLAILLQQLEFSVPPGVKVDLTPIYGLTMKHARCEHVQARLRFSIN
Method: (§1) Further evaluations were performed for some of the LSF analogs in MDS assays, solubility, oral bioavailability, and stability (see Table 1). Analogs having greater than 50% inhibitory activity were considered to have high activity; analogs having from 20-49% inhibitory activity were considered to have medium activity; and analogs having less than 20 inhibitory activity were considered to have low activity

rCYP 2C9 = rCYP 2C9 (Homo sapiens, UniProt P11712); assay: rCYP450 inhibition, 2C9; type: in vitro ADME; parameters: concentration or dose not given beside the values
Chain of rCYP 2C9 (P11712 whole entry): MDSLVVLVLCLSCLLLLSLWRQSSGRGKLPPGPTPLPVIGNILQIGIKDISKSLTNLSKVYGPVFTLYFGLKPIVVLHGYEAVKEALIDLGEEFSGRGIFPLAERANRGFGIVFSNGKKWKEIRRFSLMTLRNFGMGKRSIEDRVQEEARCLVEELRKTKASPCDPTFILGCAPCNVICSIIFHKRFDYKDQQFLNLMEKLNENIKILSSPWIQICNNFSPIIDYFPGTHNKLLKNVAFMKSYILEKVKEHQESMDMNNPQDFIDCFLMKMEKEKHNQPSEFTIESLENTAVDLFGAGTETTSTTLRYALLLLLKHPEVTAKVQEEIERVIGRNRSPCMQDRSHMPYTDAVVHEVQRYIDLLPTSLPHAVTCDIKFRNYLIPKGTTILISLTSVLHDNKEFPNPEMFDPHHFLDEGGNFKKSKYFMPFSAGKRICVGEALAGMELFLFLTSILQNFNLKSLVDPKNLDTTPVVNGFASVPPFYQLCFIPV
Method: as §1

rCYP 2C19 = rCYP 2C19 (Homo sapiens, UniProt P33261); assay: rCYP450 inhibition, 2C19; type: in vitro ADME; parameters: concentration or dose not given beside the values
Chain of rCYP 2C19 (P33261 whole entry): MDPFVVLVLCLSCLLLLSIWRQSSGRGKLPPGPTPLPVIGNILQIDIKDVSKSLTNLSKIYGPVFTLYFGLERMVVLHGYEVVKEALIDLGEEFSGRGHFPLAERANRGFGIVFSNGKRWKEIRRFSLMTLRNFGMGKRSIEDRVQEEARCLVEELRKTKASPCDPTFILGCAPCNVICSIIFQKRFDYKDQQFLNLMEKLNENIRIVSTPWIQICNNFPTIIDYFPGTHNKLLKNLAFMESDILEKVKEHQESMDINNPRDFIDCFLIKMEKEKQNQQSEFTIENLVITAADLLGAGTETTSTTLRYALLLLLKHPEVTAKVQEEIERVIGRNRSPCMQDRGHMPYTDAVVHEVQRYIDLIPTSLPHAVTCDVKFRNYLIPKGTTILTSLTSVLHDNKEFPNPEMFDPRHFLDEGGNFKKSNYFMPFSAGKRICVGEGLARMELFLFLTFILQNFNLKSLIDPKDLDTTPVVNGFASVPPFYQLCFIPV
Method: as §1

rCYP 2D6 = rCYP 2D6 (Homo sapiens, UniProt P10635); assay: rCYP450 inhibition, 2D6; type: in vitro ADME; parameters: concentration or dose not given beside the values
Chain of rCYP 2D6 (P10635 whole entry): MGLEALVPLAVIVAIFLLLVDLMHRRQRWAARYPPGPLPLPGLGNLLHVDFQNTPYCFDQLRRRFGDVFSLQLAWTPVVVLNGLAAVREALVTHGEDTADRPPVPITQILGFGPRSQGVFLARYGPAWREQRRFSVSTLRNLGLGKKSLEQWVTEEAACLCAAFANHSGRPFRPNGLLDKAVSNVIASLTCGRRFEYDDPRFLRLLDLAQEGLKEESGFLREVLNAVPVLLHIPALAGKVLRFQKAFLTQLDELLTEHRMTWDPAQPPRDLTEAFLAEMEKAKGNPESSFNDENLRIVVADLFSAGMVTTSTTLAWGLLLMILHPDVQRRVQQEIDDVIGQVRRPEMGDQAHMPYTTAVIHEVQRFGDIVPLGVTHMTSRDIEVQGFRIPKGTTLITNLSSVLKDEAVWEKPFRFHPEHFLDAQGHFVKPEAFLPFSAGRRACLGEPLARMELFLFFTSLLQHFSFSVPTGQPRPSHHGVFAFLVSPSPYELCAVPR
Method: as §1

rCYP 3A4 = rCYP 3A4 (Homo sapiens, UniProt P08684); assay: rCYP450 inhibition, 3A4; type: in vitro ADME; parameters: concentration or dose not given beside the values
Chain of rCYP 3A4 (P08684 whole entry): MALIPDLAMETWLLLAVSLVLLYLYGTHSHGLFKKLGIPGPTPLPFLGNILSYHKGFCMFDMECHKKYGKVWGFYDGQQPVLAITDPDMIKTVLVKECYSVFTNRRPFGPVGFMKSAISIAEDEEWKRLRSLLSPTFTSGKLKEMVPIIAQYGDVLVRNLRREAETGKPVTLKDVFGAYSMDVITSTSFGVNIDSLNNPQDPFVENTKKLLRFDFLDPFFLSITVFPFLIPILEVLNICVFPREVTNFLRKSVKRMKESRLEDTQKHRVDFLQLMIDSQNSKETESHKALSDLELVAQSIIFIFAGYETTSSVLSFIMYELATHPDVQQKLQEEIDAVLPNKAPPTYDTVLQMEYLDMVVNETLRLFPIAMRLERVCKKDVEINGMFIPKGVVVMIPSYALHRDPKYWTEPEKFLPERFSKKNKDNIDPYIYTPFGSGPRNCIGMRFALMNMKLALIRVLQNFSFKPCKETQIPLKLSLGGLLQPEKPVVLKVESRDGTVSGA
Method: as §1

Metabolic stability = type: in vitro ADME
Method: (§2) Further evaluations were performed for some of the LSF analogs in MDS assays, solubility, oral bioavailability, and stability (see Table 1).

cytochrome p450 = cytochrome p450 inhibition, overall statement; type: in vitro ADME
Excerpt: Analogs having greater than 50% inhibitory activity were considered to have high activity; analogs having from 20-49% inhibitory activity were considered to have medium activity; and analogs having less than 20 inhibitory activity were considered to have low activity

Caco-2 = Caco-2 permeability test; type: in vitro ADME
Solubility = type: physicochemical; details: in words
Method: as §2

mouse-origin β-TC6 cells [1] = assay: β-cell apoptosis protection after inflammatory cytokines, pancreatic β cell lines; type: cell-based; details: mouse islet cell line
Method: (§3) The disclosed analogs (CPW1-15) were evaluated in pancreatic β cell lines for apoptosis protection after treatment with inflammatory cytokines (reflected by reduced OD450) and insulin-release (see FIGS. 5 and 6).
The β-TC6 cell line is maintained in RPMI 1640 medium (Life Technologies, Rockville, Md.) supplemented with 10% heat inactivated fetal bovine serum, 10 mM HEPES, […] L-glutamine, 50 units/ml penicillin and 50 μg/ml streptomycin at pH 7.4. The cells are cultured in a 37° C., humidified incubator supplied with 5% carbon dioxide. Fresh media is replaced every two days. Unless otherwise stated, the cells are plated at a density of 10^5/cm^2. Culture vessels (dishes and chamber slides) used for experiments were coated with poly-D-lysine and gelatin (Sigma, St. Louis, Mo.) to retain detached and dead cells so that seeding cell numbers reflect the actual cell numbers after all treatment conditions.
β-TC6 cells are treated with vehicle alone or with the combination of recombinant mouse IL-1β (5 ng/ml), IFN-γ (100 ng/ml) and TNF-α (10 ng/ml) (R&D Systems, Minneapolis, Minn.) suspended in complete RPMI medium. LSF (Cell Therapeutics, Inc. Seattle, Wash.) or the analogs are added simultaneously with the cytokines in complete RPMI medium in the concentrations ranging 1 nM-[…]. All treatments are conducted for 18 hours. The results are illustrated in FIGS. 5A-8P.

mouse-origin β-TC6 cells [2] = assay: Insulin release, pancreatic β cell lines; type: cell-based; details: mouse islet cell line
Method: as §3
At the end of treatment, cells are washed with Krebs-Ringer-bicarbonate-HEPES buffer (KR13) containing in mM: 134 NaCl, 4.7 KCl, 1.2 KH2P04, 1.2 MgS04, 1.0 CaCI2, 10 HEPES, and 0.1% bovine serum albumin at 37° C., at a pH of 7.4. The cells are pre incubated in the same buffer for 30 min followed by 60-min incubation in KRB supplemented with 15 mM D-glucose (J. T. Baker, Phillisburg, N.J.). The supernatant is harvested and subjected to centrifugation to eliminate residue cells. Insulin secreted into the supernatant is measured using EIA with mouse insulin as a standard. The results are illustrated in FIGS. 9A-9P.

human islets [3] = assay: Insulin secretion in human islets exposed to cytokines; type: cell-based; details: human islet, in the presence of inflammatory cytokines
Method: (§4) Four compounds (CPW7, CPW8, CPW11, and CPW12) were also evaluated on human islets for the induction of insulin secretion, intracellular ATP concentrations and the effect of reducing cell death exposed to cytokines (combination of human IL-1β, IFN-γ, and TNF-α). The results are illustrated FIGS. 7A-7D.

human islets [4] = assay: Intracellular ATP concentrations (mitochondrial function) in human islets; type: cell-based; details: human β-cells
Method: as §4

human islets [5] = assay: Cell death of human islets exposed to cytokines; type: cell-based; details: human β-cells
Method: as §4

INS-1 cells [6] = assay: Protection of INS-1 cells from cytokine-induced cell death; type: cell-based, rat
Method: The effects of LSF analogs on β-cells in the […] insulin-secreting INS-1 cell line were investigated. Cells were maintained in RPMI 1640 medium (Life Technologies, Inc., Gaithersburg, Md.) supplemented with 10% heat-inactivated FBS, 10 mm HEPES, 200 μm L-glutamine, 1 mm sodium pyruvate, […] 2-mercaptoethanol, 50 U/ml penicillin, and 50 μg/ml streptomycin at pH 7.4. The cells were cultured at 37° C. in a humidified incubator supplied with 5% carbon dioxide. Fresh medium was replaced every 2 days. The cells were plated at a density of […]. Culture vessels were coated with poly-D-lysine and gelatin (Sigma, St. Louis, Mo.) to retain detached and dead cells so that seeding cell numbers reflect the actual cell numbers after all treatment conditions. INS-1 cells were treated with the combination of recombinant mouse IL-1β (5 ng/ml), IFNγ (100 ng/ml), and TNFα (10 ng/ml; R&D Systems, Inc., Minneapolis, Minn.) suspended in complete RPMI medium. LSF (provided by Cell Therapeutics, Inc., Seattle, Wash.) and analogs were added simultaneously with the cytokines in complete RPMI medium. All treatments were performed for 18 hours.
INS-1 cells were treated with a combination of recombinant IL-1β, INFγ, and TNFα with 10^−5-10^3 μM LSF and its analogs. […] There was no further increase in β-cell protection when the LSF concentration was increased from 10^−2 to 10^2 μM. […] No further increases in β-cell protection were observed when analog concentrations were increased.
The effects of LSF analogs on insulin secretion in INS-1 cells with and without inflammatory cytokines. β-Cells were treated with apoptosis detecting dye for 2-3 hours at room temperature. Apoptotic cells were recognized with purple-red color under a microscope. After washing to eliminate free dye and adding dye release reagent, color density was quantified by reading at OD 450 nm. […] Insulin secreted into the supernatant was measured by RIA with mouse insulin as a standard. […]

INS-1 cells [7] = assay: Insulin secretion in INS-1 cells; type: cell-based, rat; details: 20 μM
Method: The effects of LSF analogs on insulin secretion in INS-1 cells with and without inflammatory cytokines. β-Cells were treated with apoptosis detecting dye for 2-3 hours at room temperature. Apoptotic cells were recognized with purple-red color under a microscope. After washing to eliminate free dye and adding dye release reagent, color density was quantified by reading at OD 450 nm. At the end of treatment, cells were washed with Krebs-Ringer-bicarbonate-HEPES buffer (KRB) containing 134 mm NaCl, 4.7 mm KCl, 1.2 mm KH2PO4, 1.2 mm MgSO4, 1.0 mm CaCl2, 10 mm HEPES, and 0.1% BSA at 37° C., pH 7.4. The cells were preincubated in the same buffer for 30 min, followed by 60-min incubation in KRB supplemented with 15 mM D-glucose (J. T. Baker, Phillipsburg, N.J.). The supernatant was harvested and subjected to centrifugation to eliminate residue cells. Insulin secreted into the supernatant was measured by RIA with mouse insulin as a standard. The cells are maintained in basal (3 mM) and glucose-stimulated (28 mM). […] Insulin secretion in INS-1 cells: (a) LSF, (b) compound CPW11, and (c) compound CPW12. […]

[8] = cited from earlier work
[9] = test system: non-obese diabetic (NOD) mouse; details: cited from earlier work
β-cells = details: maintains insulin secretory capability and cell viability; cited from earlier work

CC(O)CCCCN1C(=O)C(C)N(CCCCC(C)O)C(=O)C1C (mixture of isomers) [CPW6]
rCYP % Inhibition 1A2 (rCYP 1A2): 13% | rCYP % Inhibition 2C9 (rCYP 2C9): 3% | rCYP % Inhibition 2C19 (rCYP 2C19): 14% | rCYP % Inhibition 2D6 (rCYP 2D6): 16% | rCYP % Inhibition 3A4 (rCYP 3A4): 14% | Metabolic Stability Percent Remaining (Metabolic stability): 77%

CC(=O)O[C@H](C)CCCCn1ccc2cc(Br)ccc21 [CPW1]
rCYP % Inhibition 1A2 (rCYP 1A2): 58% | rCYP % Inhibition 2C9 (rCYP 2C9): 86% | rCYP % Inhibition 2C19 (rCYP 2C19): 99% | rCYP % Inhibition 2D6 (rCYP 2D6): 80% | rCYP % Inhibition 3A4 (rCYP 3A4): 57% | Metabolic Stability Percent Remaining (Metabolic stability): 0%

C[C@@H](O)CCCCn1ccc2cc(Br)ccc21 [CPW4]
rCYP % Inhibition 1A2 (rCYP 1A2): 56% | rCYP % Inhibition 2C9 (rCYP 2C9): 38% | rCYP % Inhibition 2C19 (rCYP 2C19): 94% | rCYP % Inhibition 2D6 (rCYP 2D6): 50% | rCYP % Inhibition 3A4 (rCYP 3A4): 32% | Metabolic Stability Percent Remaining (Metabolic stability): 0%

C[C@@H]([O-])CCCCN1C(=O)COc2ccccc21.[Na+] [CPW7]
rCYP % Inhibition 1A2 (rCYP 1A2): 12% | rCYP % Inhibition 2C9 (rCYP 2C9): 5% | rCYP % Inhibition 2C19 (rCYP 2C19): 12% | rCYP % Inhibition 2D6 (rCYP 2D6): 8% | rCYP % Inhibition 3A4 (rCYP 3A4): 12%

CC(=O)O[C@H](C)CCCCn1[nH]c(=O)n(-c2ccccc2)c1=O [CPW8]
rCYP % Inhibition 1A2 (rCYP 1A2): 7% | rCYP % Inhibition 2C9 (rCYP 2C9): 5% | rCYP % Inhibition 2C19 (rCYP 2C19): 24% | rCYP % Inhibition 2D6 (rCYP 2D6): 10% | rCYP % Inhibition 3A4 (rCYP 3A4): 12% | Metabolic Stability Percent Remaining (Metabolic stability): 45%

C[C@@H](O)CCCCn1[nH]c(=O)n(-c2ccccc2)c1=O [CPW9]
rCYP % Inhibition 1A2 (rCYP 1A2): 5% | rCYP % Inhibition 2C9 (rCYP 2C9): −12% | rCYP % Inhibition 2C19 (rCYP 2C19): 1% | rCYP % Inhibition 2D6 (rCYP 2D6): 2% | rCYP % Inhibition 3A4 (rCYP 3A4): −4% | Metabolic Stability Percent Remaining (Metabolic stability): 106%

C[C@@H](O)CCCCOc1n[nH]c(=O)c2ccccc12 [CPW12]
rCYP % Inhibition 1A2 (rCYP 1A2): 18% | rCYP % Inhibition 2C9 (rCYP 2C9): 30% | rCYP % Inhibition 2C19 (rCYP 2C19): 30% | rCYP % Inhibition 2D6 (rCYP 2D6): 12% | rCYP % Inhibition 3A4 (rCYP 3A4): 4% | Metabolic Stability Percent Remaining (Metabolic stability): 75% | stability (Metabolic stability; in words): acceptable | cytochrome p450 inhibition (cytochrome p450): low (less than 20 inhibitory activity) | Caco-2 permeability test results (Caco-2): could be orally absorbed from the GI track | solubility (Solubility): acceptable | β-cell protection (mouse-origin β-TC6 cells [1]): positive effects | insulin release (mouse-origin β-TC6 cells [2]): positive effects | insulin secretion (human islets [3]): positive effects | maintaining mitochondrial function (human islets [4]): beneficial effect | maintaining cell viability (human islets [5]): beneficial effect | β-cell protective activity compared with LSF (INS-1 cells [6]; concentration of 10^−2 μM): comparative activity with LSF | protective effects on β-cells (INS-1 cells [6]; cytokine-induced cell death): effective at low concentrations

C[C@@H](O)CCCCOc1nn(CCCC[C@@H](C)O)c(=O)c2ccccc12 [CPW13]
rCYP % Inhibition 1A2 (rCYP 1A2): 25% | rCYP % Inhibition 2C9 (rCYP 2C9): 92% | rCYP % Inhibition 2C19 (rCYP 2C19): 89% | rCYP % Inhibition 2D6 (rCYP 2D6): −28% | rCYP % Inhibition 3A4 (rCYP 3A4): −159% | Metabolic Stability Percent Remaining (Metabolic stability): 38%

C[C@@H](O)CCCCN1c2ccccc2Oc2ccccc21 [CPW20]
rCYP % Inhibition 1A2 (rCYP 1A2): 95% | rCYP % Inhibition 2C9 (rCYP 2C9): 86% | rCYP % Inhibition 2C19 (rCYP 2C19): 98% | rCYP % Inhibition 2D6 (rCYP 2D6): 73% | rCYP % Inhibition 3A4 (rCYP 3A4): 50% | Metabolic Stability Percent Remaining (Metabolic stability): 19%

C[C@@H](O)CCCCn1c(=O)c2c(ncn2C)n(C)c1=O [LSF, 1-(5-R-hydroxyhexyl)-3,7-dimethylxanthine]
concentration of maximum protective effect (INS-1 cells [6]; IL-1β + IFNγ + TNFα, 18 hours): 10^−2 μM | insulin release (INS-1 cells [7]): Insulin release was observed | oral bioavailability [8]: not orally bioavailable | spontaneous Type 1 diabetes development [9]: significantly reduce | protection of β-cells from inflammatory cytokine-mediated injuries (β-cells): able to protect β-cells
